Measurements as given in article PMC13327620, “A Deep‐Red‐Absorbing Osmium(II) Complex as a Photosensitizer for Photodynamic Therapy Inducing Immunogenic Cell Death” (Angewandte Chemie (International Ed. in English), 2026).
Like-named read-outs stand apart in the source and are kept apart here.

How the values were obtained:
[1] = test system: human glioblastoma cells (U-87 MG); assay: Resazurin cell viability assay, (photo)cytotoxicity, normoxia; format: cell-based; conditions: for IC50: Homo sapiens
Method: (100 U ml−1), streptomycin (100 U ml−1), and 1% L-glutamine. […]
All cells were incubated at 37 °C in a humidified atmosphere with 5 % CO2.
(§1) Normoxia. The in vitro viability of cells exposed to the complexes was determined using a resazurin assay. C ells were seeded in 96-well plates at densities of 4,000 cells/well for CT26, MC A205 and U-87 MG cells, and 8,000 cells/well for MRC-5 and NIH/3T3 cells. A fter 24 h of growth at 37 °C wit h 5% CO2, the medium was replaced with fresh medium containing various concentrations of the compounds . Following a 4- h incubation in the dark, the medium was refres hed , and the plates were exposed to irradiation usinga LUM OS -BIO photoreactor (At las Photonics).N on- ir rad iated plates were similarly refr eshed with medium and kept in the dark for the same duration. After a 40- h r ecov ery period, a f reshly pr epar ed resazurin solution (0.2 mg/mL) was added to each well, and the plates were left in the dark for 4 h before analysis on a B i o Te k Cytation 5 Cell Imaging Multimode Reader (Agil ent Technologies). […]

[2] = test system: mouse fibrosarcoma (MCA205) cells; assay: Resazurin cell viability assay, phototoxicity; format: cell-based; conditions: MCA-205, light or radiation study, 1 h, MCA205, 740 nm, 60 min, 12.60 J/cm2
Method: (100 U ml−1), streptomycin (100 U ml−1), and 1% L-glutamine. The murine fibrosarcom a (MCA205) cells were cultured in RPMI 1640 medium with 10% fetal bovine serum (FBS), penicillin (100 U ml−1), streptomycin (100 U ml−1), and 1% L-glutamine. All cells were incubated at 37 °C in a humidified atmosphere with 5 % CO2.
as §1

calreticulin (ecto‐CRT) = assay: Immunofluorescence staining of cell surface calreticulin in CT26 cells; format: cell-based, mouse; conditions: CT26, 740 nm light
Method: Next, translocation of ER‐resident calreticulin (endo‐CRT) to the cell surface (ecto‐CRT) was measured by confocal microscopy following treatments with Ce6 or Os2 exposed to 740 or 770 nm illumination (Figure 3B,D). In this experiment, cells were fixed but not permeabilized before CRT staining to label only the ecto‐CRT, which is present at the cell surface. […]
concentrations and incub ated for 4 h in the dark. Following the 4 h dark incubation with Os2, wells containing the compound were replaced with the medium containing the selective ROS s caveng ers: 5 mM sodium azide (NaN₃) for singlet oxygen (¹O₂) or 50 mM D-mannitol for hydroxyl radicals (•OH). […] Cell viability was assessed using a 0.2 mg/mL resazurin solution incubated in the dark for 4 h, and fluorescence was measured on a BioTek Cytation 5 Cell Imaging Multimode […]
Singlet oxygen and hydroxyl r adical generation k inetics of Os2 in s olution The generation of singlet oxygen (¹O₂) and hydroxyl radicals (•OH) by Os2 in solution was evalu ated using AB DA (100 μ M) and HPF (5 μ M) as probes, respectively. […] AB DA absorban ce d ecay was monitored to track ¹O₂ gener ation, while HPF fluorescence increas e (λex = 490 nm; λ em = 500-700 nm) was measured to track •OH formation. Control solutions without Os2 wer e measured under the same conditions to account for background signals. […]

HMGB‐1 = assay: Immunofluorescence staining of HMGB-1 (release) in MCA205 cells; format: cell-based, mouse; conditions: MCA205, PS at IC50, illumination at 740 nm
Method: We then used the corresponding IC50 values of each PS to evaluate their in vitro ICD induction on MCA205 cells. […] As a result, we chose Ce6 as the positive control for our subsequent in vivo tests on MCA205 cells.
Scientific, Catalog no.15 5411) at a d ensity of 8,00 0 cells p er well and cultu red fo r 24 h at 37 °C with 5 % CO2. T he cells wer e then treated with a solution of the compounds at a concentration corresponding to the IC50 for 4 h. After refreshing the medium, cells were subjected to irradiation and incubated for an additional 12 h. Subsequently, the cells were fix ed with 4% paraformaldehyde and immunostained with Anti- Calreticulin antibody (Abcam, Catalog no. ab2907) diluted 1/1000 at 4 °C overnight. Cells were then washed three times with PBS, treated with Goat Anti- Rabbit IgG H&L (Alexa […]
temperature in the dark, washed in PBS and treat ed with 10 µg/mL Hoechst for 15 min.
After a final wash, cells were analyzed by confocal microscopy as det ailed above.
Immunofluorescence st aining of HMGB-1
CT26 or MCA205 cells were seeded in Lab -Te k ® Chambered Coverglass System (Thermo Fisher Scientific, Catalog no.155411) at a density of 8,000 cells per well and cultured for 24 h at 37 °C with 5% CO2. The cells were then treated with a solution of the compounds at a concentration corresponding to the IC50 for 4 h. […]

`C=Cc1c(C)c2cc3nc(c(CC(=O)O)c4[nH]c(cc5nc(cc1[nH]2)C(C)=C5CC)c(C)c4C(=O)O)[C@@H](CCC(=O)O)[C@@H]3C` [Ce6, chlorin e6] showed a PI ([1]; 740 nm) of 28, a PI ([1]; 770 nm) of 8 and an IC50 ([1]; dark, read-out: IC50 Dark) of 116 ± 6.99 µM. It also gave an IC50 ([1]; light or radiation study, 1 h, 740 nm, 1.12 mW/cm2, 60 min, 12.60 J/cm2, read-out: IC50 740 nm) of 4.15 ± 0.06 µM, an IC50 ([1]; light or radiation study, 2 h, 770 nm, 0.68 mW/cm2, 120 min, 15.30 J/cm2, read-out: IC50 770 nm) of 14 ± 3.14 µM and an IC50 [2] of 1.77 ± 0.38 µM. The “ecto‐CRT signal” value (calreticulin (ecto‐CRT)) was “weaker, but clearly visible” and the “HMGB‐1 release” value (HMGB‐1) was “significantly promoted”.
